Experimental data: patent publication US6127519A, “Calcitonin derivatives” (Tsumura & Co., priority 1990, dated 2000)
Numbered stars: 1 amine (or outer) side, 2 acyl side, 3 side chain; on linkers, the order of the positions; unused ones are H or OH. Bridge positions count the residues as written; N and C are the ends. Square brackets hold non-standard residues; d marks the D form. Ends that are not written are not given here. Peptide text beside a SMILES is read from it. Suc = O=C(CCC(=O)[*:2])[*:1]; Orn = NCCC[C@H](N)C(=O)O

Test system: calcium concentration in the serum
Assay: Test 1: reduction of calcium level in serum after tail vein administration to rats
Format: in vivo, rats of the Wistar strain
Settings: 1 ml/kg tail vein, female Wistar rats
Experimental: Six-weeks-old female rats of the Wistar strain (each group consisting of 4 rats) were used as the test animal, and the peptides of the present invention obtained in the examples given hereinafter were tested at concentrations adjusted with a 1% aqueous solution of sodium acetate (pH 4,0) to which 0.1% bovine serum albumin (BSA) was added. The solution was adjusted to a concentration of 166 μg/ml 830 ng/ml or 83 ng/ml and administered with the tail vein in an amount of 1 ml/kg. The back of the rat was fixed and blood was collected just before the administration, and at predetermined intervals after the administration, from the neck vein. The amount of blood collected each time was 0.3 ml. The sampled blood was subjected to centrifugal separation at 3500 rpm for 20 minutes to separate serum and the calcium content in the separated serum was measured by TBA-380 (supplied by Toshiba) using a Wako calcium-measuring kit (o-cpc method), and the ratio of reduction of the calcium concentration in the serum was determined.

[1] = concentration 83 ng/ml, 0 hour (just before administration)
[2] = concentration 83 ng/ml, 2 hours
[3] = concentration 83 ng/ml, 4 hours
[4] = concentration 83 ng/ml, 6 hours
[5] = concentration 830 ng/ml, 0 hour (just before administration)
[6] = concentration 830 ng/ml, 1 hour
[7] = concentration 830 ng/ml, 2 hours
[8] = concentration 830 ng/ml, 4 hours
[9] = concentration 830 ng/ml, 6 hours

Compound | Serum calcium level as percent of pre-dose baseline [1] | Serum calcium level as percent of pre-dose baseline (concentration 83 ng/ml, 1 hour) | Serum calcium level as percent of pre-dose baseline [2] | Serum calcium level as percent of pre-dose baseline [3] | Serum calcium level as percent of pre-dose baseline [4] | Serum calcium level as percent of pre-dose baseline [5] | Serum calcium level as percent of pre-dose baseline [6] | Serum calcium level as percent of pre-dose baseline [7] | Serum calcium level as percent of pre-dose baseline [8] | Serum calcium level as percent of pre-dose baseline [9]
CC[C@H](C)[C@H](NC(=O)[C@H](C)NC(=O)[C@@H](NC(=O)[C@H](CCC(N)=O)NC(=O)[C@@H]1CCCN1C(=O)[C@H](Cc1ccc(O)cc1)NC(=O)[C@@H](NC(=O)[C@H](Cc1c[nH]cn1)NC(=O)[C@H](Cc1ccccc1)NC(=O)[C@H](CCCCN)NC(=O)[C@H](CC(N)=O)NC(=O)[C@H](CC(C)C)NC(=O)[C@H](CC(=O)O)NC(=O)[C@H](CCC(N)=O)NC(=O)[C@H](CO)NC(=O)[C@H](CC(C)C)NC(=O)[C@H](CCCCN)NC(=O)CNC(=O)[C@H](CC(C)C)NC(=O)[C@H](CC(C)C)NC(=O)[C@@H]1CCCCNC(=O)C[C@H](N)C(=O)N[C@@H](CC(N)=O)C(=O)N[C@@H](CC(C)C)C(=O)N[C@@H](CO)C(=O)N[C@@H]([C@@H](C)O)C(=O)N1)[C@@H](C)O)[C@@H](C)O)C(=O)NCC(=O)N[C@H](C(=O)NCC(=O)N[C@@H](C)C(=O)N1CCC[C@H]1C(N)=O)C(C)C [Peptide No. 31] (H-DNLSTKLLGKLSQDLNKFHTYPQTAIGVGAP-NH2; lactam 1-6) | 100.0% | 79.1% | 72.7% | 77.5% | 74.3% | 100.0% | 74.3% | 65.6% | 57.3% | 49.6%
CC[C@H](C)[C@H](NC(=O)[C@H](C)NC(=O)[C@@H](NC(=O)[C@H](CCC(N)=O)NC(=O)[C@@H]1CCCN1C(=O)[C@H](Cc1ccc(O)cc1)NC(=O)[C@@H](NC(=O)[C@H](CCC(N)=O)NC(=O)[C@H](CC(C)C)NC(=O)[C@H](CCCCN)NC(=O)[C@H](Cc1c[nH]cn1)NC(=O)[C@H](CC(C)C)NC(=O)[C@H](CCC(=O)O)NC(=O)[C@H](CCC(N)=O)NC(=O)[C@H](CO)NC(=O)[C@H](CC(C)C)NC(=O)[C@H](CCCCN)NC(=O)CNC(=O)[C@H](CC(C)C)NC(=O)[C@H](CC(C)C)NC(=O)[C@@H]1CCCNC(=O)CC[C@H](N)C(=O)N[C@@H](CC(N)=O)C(=O)N[C@@H](CC(C)C)C(=O)N[C@@H](CO)C(=O)N[C@@H]([C@@H](C)O)C(=O)N1)[C@@H](C)O)[C@@H](C)O)C(=O)NCC(=O)N[C@H](C(=O)NCC(=O)N[C@@H](C)C(=O)N1CCC[C@H]1C(N)=O)C(C)C [Peptide No. 29] (H-ENLST[Orn]LLGKLSQELHKLQTYPQTAIGVGAP-NH2; lactam 1-6) | 100.0% | 84.6% | 91.7% | 83.2% | 76.6% | 100.0% | 75.0% | 84.7% | 78.0% | 73.1%
CC[C@H](C)[C@H](NC(=O)[C@H](C)NC(=O)[C@@H](NC(=O)[C@H](CCC(N)=O)NC(=O)[C@@H]1CCCN1C(=O)[C@H](Cc1ccc(O)cc1)NC(=O)[C@@H](NC(=O)[C@H](Cc1c[nH]cn1)NC(=O)[C@H](Cc1ccccc1)NC(=O)[C@H](CCCCN)NC(=O)[C@H](CC(N)=O)NC(=O)[C@H](CC(C)C)NC(=O)[C@H](CC(=O)O)NC(=O)[C@H](CCC(N)=O)NC(=O)[C@H](CO)NC(=O)[C@H](CC(C)C)NC(=O)[C@H](CCCCN)NC(=O)CNC(=O)[C@H](CC(C)C)NC(=O)[C@H](CC(C)C)NC(=O)[C@@H]1CCCCNC(=O)CCC(=O)N[C@@H](CC(N)=O)C(=O)N[C@@H](CC(C)C)C(=O)N[C@@H](CO)C(=O)N[C@@H]([C@@H](C)O)C(=O)N1)[C@@H](C)O)[C@@H](C)O)C(=O)NCC(=O)N[C@H](C(=O)NCC(=O)N[C@@H](C)C(=O)N1CCC[C@H]1C(N)=O)C(C)C [Peptide No. 32] (NLSTKLLGKLSQDLNKFHTYPQTAIGVGAP-NH2; linker N-5 via Suc) | 100.0% | 82.4% | 76.1% | 79.1% | 84.1% | 100.0% | 84.5% | 73.6% | 65.9% | 64.2%
Peptide No. 20: novel linear calcitonin-derivative peptide, Ala at 1 and 7, Leu8, SEQ ID NO:20 (AGNLTSALLGKLSQELHKLQTYPQTAIGVGAP; ends and bridges not checked) | 100.0% | 86.6% | 88.4% | 83.9% | 87.5% | 100.0% | 80.6% | 87.8% | 82.9% | 84.5%
Peptide No. 21: novel calcitonin-derivative peptide, aminosuberic acid (carba) ring, Met8, SEQ ID NO:21 (XGNLSTAMLGKLSQELHKLQTYPQTAIGVGAP; aminosuberic acid carba ring) | 100.0% | 78.4% | 71.7% | 62.6% | 67.1% | 100.0% | 78.4% | 71.7% | 62.6% | 67.1%
CC[C@H](C)[C@H](NC(=O)[C@H](C)NC(=O)[C@@H](NC(=O)[C@H](CCC(N)=O)NC(=O)[C@@H]1CCCN1C(=O)[C@H](Cc1ccc(O)cc1)NC(=O)[C@@H](NC(=O)[C@H](CCC(N)=O)NC(=O)[C@H](CC(C)C)NC(=O)[C@H](CCCCN)NC(=O)[C@H](Cc1c[nH]cn1)NC(=O)[C@H](CC(C)C)NC(=O)[C@H](CCC(=O)O)NC(=O)[C@H](CCC(N)=O)NC(=O)[C@H](CO)NC(=O)[C@H](CC(C)C)NC(=O)[C@H](CCCCN)NC(=O)CNC(=O)[C@H](CC(C)C)NC(=O)[C@H](CC(C)C)NC(=O)[C@@H]1CC(=O)NCCCC[C@H](N)C(=O)N[C@@H](CC(N)=O)C(=O)N[C@@H](CC(C)C)C(=O)N[C@@H](CO)C(=O)N[C@@H]([C@@H](C)O)C(=O)N1)[C@@H](C)O)[C@@H](C)O)C(=O)NCC(=O)N[C@H](C(=O)NCC(=O)N[C@@H](C)C(=O)N1CCC[C@H]1C(N)=O)C(C)C [Peptide No. 28] (H-KNLSTDLLGKLSQELHKLQTYPQTAIGVGAP-NH2; lactam 1-6) | 100.0% | 83.7% | 87.7% | 82.6% | 80.8% | 100.0% | 73.5% | 87.2% | 83.8% | 81.6%
